We go through nine cell lines from the supplement of paper PMC10307832.

Holding throughout (experiment): relative viability (nuclei count vs DMSO), 5 days (fraction); higher = more cells survive
Compound in the assay “FG-4592 + Dasatinib”: Cc1nc(C(=O)NCC(=O)O)c(O)c2ccc(Oc3ccccc3)cc12 [FG-4592] + Cc1nc(Nc2ncc(C(=O)Nc3c(C)cccc3Cl)s2)cc(N2CCN(CCO)CC2)n1 [Dasatinib] (partner 0.075 µM)
The procedure, abridged:
(§1)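 Nuclei were stained with Hoechst during a one-step fixation (final 0.05% Triton X-100, 1% formaldehyde, 1 ug/ml Hoechst) carried out 5 days after dosing, then counted on 4× images. The cells, lung cancer lines in 1536-well plates, had been dosed by pin tool the day after seeding with one drug alone or a fixed anchor-drug dose plus five library-drug doses (not always all listed) in √10 steps. Relative viability is the nuclei count in treated wells divided by that in vehicle wells, and each value is the median of duplicate plates.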

Compound in the assay “IU1-47 + Crizotinib”: CC1=CC(=C(N1C2=CC=C(C=C2)Cl)C)C(=O)CN3CCCCC3 [IU1-47] + C[C@@H](Oc1cc(-c2cnn(C3CCNCC3)c2)cnc1N)c1c(Cl)ccc(F)c1Cl [Crizotinib] (partner 1 µM)
The procedure, abridged: as §1

Compound in the assay “FG-4592 + Navitoclax”: Cc1nc(C(=O)NCC(=O)O)c(O)c2ccc(Oc3ccccc3)cc12 [FG-4592] + CC1(C)CCC(c2ccc(Cl)cc2)=C(CN2CCN(c3ccc(C(=O)NS(=O)(=O)c4ccc(N[C@H](CCN5CCOCC5)CSc5ccccc5)c(S(=O)(=O)C(F)(F)F)c4)cc3)CC2)C1 [Navitoclax] (partner 0.5 µM)
The procedure, abridged:
as §1

Compound in the assay “FG-4592 + Luminespib”: Cc1nc(C(=O)NCC(=O)O)c(O)c2ccc(Oc3ccccc3)cc12 [FG-4592] + CCNC(=O)c1noc(-c2cc(C(C)C)c(O)cc2O)c1-c1ccc(CN2CCOCC2)cc1 [Luminespib] (partner 0.01 µM)
The procedure, abridged: as §1

On to HCC-78, for which the relative viability in the assay with FG-4592 + Dasatinib (first compound 0.08 µM) came out at 0.472; with FG-4592 + Dasatinib (first compound 0.253 µM) it was 0.333; with FG-4592 + Dasatinib (first compound 0.8 µM), 0.379; in the assay with FG-4592 + Dasatinib (first compound 2.53 µM) it was 0.386; with FG-4592 + Dasatinib (first compound 8 µM), 0.32; with IU1-47 + Crizotinib (first compound 0.08 µM), 0.334. The relative viability with IU1-47 + Crizotinib (first compound 0.253 µM) was determined as 0.358; with IU1-47 + Crizotinib (first compound 0.8 µM) it was 0.336; with IU1-47 + Crizotinib (first compound 2.53 µM) it was 0.324; in the assay with IU1-47 + Crizotinib (first compound 8 µM) it was 0.386; with FG-4592 + Navitoclax (first compound 0.08 µM), 0.904; with FG-4592 + Navitoclax (first compound 0.253 µM), 0.766. The relative viability with FG-4592 + Navitoclax (first compound 0.8 µM) worked out at 0.442; with FG-4592 + Navitoclax (first compound 2.53 µM), 0.773; in the assay with FG-4592 + Navitoclax (first compound 8 µM), 0.806.

On to HCC-366, for which the relative viability with FG-4592 + Dasatinib (first compound 0.08 µM) turned out to be 0.624; with FG-4592 + Dasatinib (first compound 0.253 µM), 0.607; in the assay with FG-4592 + Dasatinib (first compound 0.8 µM) it was 0.339; with FG-4592 + Dasatinib (first compound 2.53 µM), 0.573; with FG-4592 + Dasatinib (first compound 8 µM), 0.414; with IU1-47 + Crizotinib (first compound 0.08 µM) it was 0.38. In addition, the relative viability was determined as 0.633 with IU1-47 + Crizotinib (first compound 0.253 µM); 0.562 with IU1-47 + Crizotinib (first compound 0.8 µM); 0.393 with IU1-47 + Crizotinib (first compound 8 µM); 1.07 with FG-4592 + Navitoclax (first compound 0.08 µM); 0.903 with FG-4592 + Navitoclax (first compound 0.253 µM); 1.12 in the assay with FG-4592 + Navitoclax (first compound 0.8 µM). In addition, the results for the relative viability in the assay with FG-4592 + Navitoclax (first compound 2.53 µM) and with FG-4592 + Navitoclax (first compound 8 µM) were 1.1 and 1.04, respectively.

As to HCC-827, the relative viability is 0.264 in the assay with FG-4592 + Dasatinib (first compound 0.08 µM); 0.379 in the assay with FG-4592 + Dasatinib (first compound 0.253 µM); 0.386 with FG-4592 + Dasatinib (first compound 0.8 µM); 0.259 in the assay with FG-4592 + Dasatinib (first compound 2.53 µM); 0.282 in the assay with FG-4592 + Dasatinib (first compound 8 µM); 0.89 with IU1-47 + Crizotinib (first compound 0.08 µM). The relative viability was 0.955 with IU1-47 + Crizotinib (first compound 0.253 µM); 1.01 in the assay with IU1-47 + Crizotinib (first compound 0.8 µM); 0.961 with IU1-47 + Crizotinib (first compound 2.53 µM); 0.904 with IU1-47 + Crizotinib (first compound 8 µM); 1.03 in the assay with FG-4592 + Navitoclax (first compound 0.08 µM); 1.01 in the assay with FG-4592 + Navitoclax (first compound 0.253 µM). The relative viability with FG-4592 + Navitoclax (first compound 0.8 µM) is 0.992; with FG-4592 + Navitoclax (first compound 2.53 µM) it was 1.02; with FG-4592 + Navitoclax (first compound 8 µM), 1.09; with FG-4592 + Luminespib (first compound 0.08 µM) it was 0.643; with FG-4592 + Luminespib (first compound 0.253 µM) it was 0.587; with FG-4592 + Luminespib (first compound 0.8 µM) it was 0.702. The relative viability with FG-4592 + Luminespib (first compound 2.53 µM) worked out at 0.657; with FG-4592 + Luminespib (first compound 8 µM), 0.591.

Turning to HOP-62, the relative viability with FG-4592 + Dasatinib (first compound 0.08 µM) turned out to be 0.637; in the assay with FG-4592 + Dasatinib (first compound 0.253 µM), 0.569; with FG-4592 + Dasatinib (first compound 0.8 µM) it was 0.567; with FG-4592 + Dasatinib (first compound 2.53 µM), 0.642; with FG-4592 + Dasatinib (first compound 8 µM), 0.628; with IU1-47 + Crizotinib (first compound 0.08 µM), 0.918. Further, the relative viability in the assay with IU1-47 + Crizotinib (first compound 0.253 µM) amounted to 0.873; in the assay with IU1-47 + Crizotinib (first compound 0.8 µM) it was 0.901; with IU1-47 + Crizotinib (first compound 2.53 µM) it was 0.441; with IU1-47 + Crizotinib (first compound 8 µM), 0.971; with FG-4592 + Navitoclax (first compound 0.08 µM), 1.04; with FG-4592 + Navitoclax (first compound 0.253 µM) it was 1.01. In addition, the relative viability was found to be 1.2 with FG-4592 + Navitoclax (first compound 0.8 µM); 0.983 with FG-4592 + Navitoclax (first compound 2.53 µM); 1.03 with FG-4592 + Navitoclax (first compound 8 µM); 0.88 with FG-4592 + Luminespib (first compound 0.08 µM); 0.871 in the assay with FG-4592 + Luminespib (first compound 0.253 µM); 0.993 with FG-4592 + Luminespib (first compound 0.8 µM). In addition, the relative viability with FG-4592 + Luminespib (first compound 2.53 µM) worked out at 0.902; in the assay with FG-4592 + Luminespib (first compound 8 µM), 0.962.

Turning to IA-LM, the relative viability with IU1-47 + Crizotinib (first compound 0.253 µM) was determined as 0.974; in the assay with IU1-47 + Crizotinib (first compound 0.8 µM), 0.942; with IU1-47 + Crizotinib (first compound 2.53 µM), 1.1; in the assay with IU1-47 + Crizotinib (first compound 8 µM), 0.644; in the assay with FG-4592 + Navitoclax (first compound 0.08 µM), 0.785; with FG-4592 + Navitoclax (first compound 0.253 µM), 0.707. The relative viability with FG-4592 + Navitoclax (first compound 0.8 µM) was found to be 0.899; in the assay with FG-4592 + Navitoclax (first compound 2.53 µM), 0.481; with FG-4592 + Navitoclax (first compound 8 µM), 0.397.

For the cell line LC-2-ad, the relative viability came to 0.513 in the assay with FG-4592 + Dasatinib (first compound 0.08 µM); 0.559 in the assay with FG-4592 + Dasatinib (first compound 0.253 µM); 0.536 with FG-4592 + Dasatinib (first compound 2.53 µM); 0.66 with FG-4592 + Dasatinib (first compound 8 µM); 0.412 with IU1-47 + Crizotinib (first compound 0.08 µM); 0.444 with IU1-47 + Crizotinib (first compound 0.253 µM). In addition, the relative viability in the assay with IU1-47 + Crizotinib (first compound 0.8 µM) stood at 0.434; in the assay with IU1-47 + Crizotinib (first compound 2.53 µM), 0.572; with IU1-47 + Crizotinib (first compound 8 µM) it was 0.41; in the assay with FG-4592 + Navitoclax (first compound 0.08 µM), 0.489; with FG-4592 + Navitoclax (first compound 0.253 µM) it was 0.465; in the assay with FG-4592 + Navitoclax (first compound 0.8 µM), 0.329. For the same cell line, the relative viability in the assay with FG-4592 + Navitoclax (first compound 2.53 µM) stood at 0.458; in the assay with FG-4592 + Navitoclax (first compound 8 µM), 0.503; with FG-4592 + Luminespib (first compound 0.08 µM) it was 0.961; in the assay with FG-4592 + Luminespib (first compound 0.253 µM), 0.885; in the assay with FG-4592 + Luminespib (first compound 2.53 µM), 0.932; in the assay with FG-4592 + Luminespib (first compound 8 µM), 0.926.

Take LCLC-97TM1: the relative viability with FG-4592 + Dasatinib (first compound 0.08 µM) stood at 0.873; in the assay with FG-4592 + Dasatinib (first compound 0.253 µM), 0.734; with FG-4592 + Dasatinib (first compound 0.8 µM), 0.907; in the assay with FG-4592 + Dasatinib (first compound 2.53 µM), 0.928; in the assay with FG-4592 + Dasatinib (first compound 8 µM), 1.03; in the assay with IU1-47 + Crizotinib (first compound 0.08 µM), 0.461. The relative viability amounted to 0.339 with IU1-47 + Crizotinib (first compound 0.253 µM); 0.458 with IU1-47 + Crizotinib (first compound 0.8 µM); 0.323 with IU1-47 + Crizotinib (first compound 8 µM); 0.396 with FG-4592 + Navitoclax (first compound 0.08 µM); 0.489 with FG-4592 + Navitoclax (first compound 0.253 µM); 0.306 in the assay with FG-4592 + Navitoclax (first compound 0.8 µM). In addition, the relative viability with FG-4592 + Navitoclax (first compound 8 µM) was 0.496; with FG-4592 + Luminespib (first compound 0.08 µM), 0.763; in the assay with FG-4592 + Luminespib (first compound 0.253 µM), 0.728; in the assay with FG-4592 + Luminespib (first compound 0.8 µM), 0.854; with FG-4592 + Luminespib (first compound 2.53 µM), 0.695; with FG-4592 + Luminespib (first compound 8 µM) it was 0.797.

For LCLC-103H, the relative viability in the assay with FG-4592 + Dasatinib (first compound 0.08 µM) stood at 0.414; with FG-4592 + Dasatinib (first compound 0.253 µM), 0.492; with FG-4592 + Dasatinib (first compound 0.8 µM), 0.311; with FG-4592 + Dasatinib (first compound 2.53 µM) it was 0.342; in the assay with FG-4592 + Dasatinib (first compound 8 µM), 0.408; with IU1-47 + Crizotinib (first compound 0.08 µM), 1.15. Besides, the relative viability with IU1-47 + Crizotinib (first compound 0.253 µM) was 1.06; with IU1-47 + Crizotinib (first compound 0.8 µM), 1.06; with IU1-47 + Crizotinib (first compound 2.53 µM) it was 1.05; in the assay with IU1-47 + Crizotinib (first compound 8 µM), 1.09; with FG-4592 + Luminespib (first compound 0.08 µM) it was 0.891; with FG-4592 + Luminespib (first compound 0.253 µM), 0.935. Besides, the relative viability in the assay with FG-4592 + Luminespib (first compound 0.8 µM) amounted to 0.998; with FG-4592 + Luminespib (first compound 2.53 µM), 1.09; with FG-4592 + Luminespib (first compound 8 µM), 0.855.

For the cell line LK-2, the relative viability in the assay with FG-4592 + Dasatinib (first compound 0.08 µM) stood at 0.281; in the assay with FG-4592 + Dasatinib (first compound 0.253 µM) it was 0.304; with FG-4592 + Dasatinib (first compound 2.53 µM) it was 0.262; with FG-4592 + Dasatinib (first compound 8 µM) it was 0.277; in the assay with IU1-47 + Crizotinib (first compound 0.08 µM), 0.204; with IU1-47 + Crizotinib (first compound 0.253 µM), 0.223. Moreover, the relative viability with IU1-47 + Crizotinib (first compound 0.8 µM) turned out to be 0.223; in the assay with IU1-47 + Crizotinib (first compound 2.53 µM), 0.213; with IU1-47 + Crizotinib (first compound 8 µM), 0.255; with FG-4592 + Navitoclax (first compound 0.08 µM) it was 0.87; in the assay with FG-4592 + Navitoclax (first compound 0.253 µM), 0.771; in the assay with FG-4592 + Navitoclax (first compound 0.8 µM), 0.734. Further, the relative viability was found to be 0.836 with FG-4592 + Navitoclax (first compound 2.53 µM); 0.674 with FG-4592 + Navitoclax (first compound 8 µM); 0.227 with FG-4592 + Luminespib (first compound 0.08 µM); 0.168 in the assay with FG-4592 + Luminespib (first compound 0.253 µM); 0.146 with FG-4592 + Luminespib (first compound 2.53 µM); 0.177 with FG-4592 + Luminespib (first compound 8 µM).
